The numbers were not newly measured in patent US7989405B2, “Prevention of microbial growth in metal working fluids” (Illinois Tool Works Inc., priority 2001, dated 2011), which cites them from elsewhere.

Each structure is given as a SMILES string.

The subject of one series is Enterobacter aerogenes. Conditions: Bacterial: Enterobacter aerogenes.
The next series concerns Escherischia coli. Conditions: Bacterial: Escherischia coli.
The test system of another series is Pseudomonas aeruginosa. Conditions: Bacterial: Pseudomonas aeruginosa.
A further series relates to Staphylococcus aureus. Conditions: Bacterial: Staphylococcus aureus.
A further series deals with Aspergillus niger. Conditions: Fungal: Aspergillus niger.
In the next series the test system is Fusarium moniliforme. Conditions: Fungal: Fusarium moniliforme.
Another series deals with Saccharomyces cerevisiae. Conditions: Fungal: Saccharomyces cerevisiae.

In the case of `CCC12COCN1COC2` [Bioban CS-1246, 7a-ethyldihydro-1H,3H,5H-oxazolo(3,4-c)oxazole], the MIC in the series on Enterobacter aerogenes was 250-300 parts per million; in the series with Escherischia coli, 450-500 parts per million; in the series on Pseudomonas aeruginosa, 800-850 parts per million; in the series on Staphylococcus aureus, 200-250 parts per million; in the series with Aspergillus niger, 65-125 parts per million; with Fusarium moniliforme, 125-250 parts per million. Further, in the series with Saccharomyces cerevisiae, the MIC is given as 16-33 parts per million. For the same compound, the “irritation of eyes and skin” value (as supplied) was “irritating to eyes and skin”. Further, for the setting “as supplied”, the mutagenicity entry is reported as “non-mutagenic”. Moreover, the sensitisation entry (as supplied) is “not a sensitising agent”. Further, the “toxicity by inhalation and skin contact” value (as supplied) is “harmful by inhalation and in contact with the skin”. Further, the hazard entry (at typical use dilutions) was “no hazard”.
